Target: mTOR (Homo sapiens, UniProt P42345)
Test: in vitro mTOR kinase activity assay (inhibition curve, Fig. 5e)
Assay type: biochemical

## COc1ncc(-c2ccc3ncnc(Nc4cnn(CCO)c4)c3c2)cc1NS(=O)(=O)c1ccc(F)cc1F [DHW-208, 2,4-difluoro-N-(5-(4-((1-(2-hydroxyethyl)-1H-pyrazol-4-yl)amino)quinazolin-6-yl)-2-methoxypyridin-3-yl)benzenesulfonamide]
  IC50: 3 nM
